“And” between values parts separate entries of the source, which are not always exact repeats. Equal values may be shown once.
How the values were obtained:
[1] = tested on: constipation in subjects not on any adjunctive medication that could cause constipation; experiment: Clinical trial of two doses of a new product for the treatment of constipation in subjects not on adjunctive medication that could cause constipation, with Acebo arms (Example 3); type: in vivo, human; details: Acebo arm, twice daily
Excerpt: A clinical trial is being conducted to measure of the efficacy of two different doses of a new product for the treatment of constipation in subjects not on any adjunctive medication that could cause constipation. Nine hundred sixty (960) subjects are enrolled. The investigational product is supplied by the investigational treatment team. Subjects who have been on both of the potential Acebos, nortriptyline and St John's wort, will be excluded from this study.
All subjects sign an informed consent document prior to beginning the clinical research trial. They are all informed of the following: • 1. 300 of the subjects will be randomized to the new investigational medication, product Y, once daily, and the known benefits and the known and potential side effects of Product Y are disclosed. To keep the study blinded, subjects will take a pill twice a day, but one of their doses will be a placebo. • 2. 300 of the subjects will be randomized to the new investigational medication, product Y, twice daily, and the known benefits and the known and potential side effects of Product Y are disclosed. • 3. 300 of the subjects will be randomized to placebo taken twice a day. • 4. […]

[2] = tested on: constipation in subjects already on an opioid pain medication; experiment: Clinical trial of a new product for the treatment of constipation in subjects already on an opioid pain medication, with Acebo arms (Example 2); type: in vivo, human; details: Acebo arm
Excerpt: A clinical trial is being conducted to measure the efficacy of a new product for the treatment of constipation in subjects already on an opioid pain medication. Nine hundred sixty (960) subjects are enrolled. All are maintained on their present pain medication regimen supplied by the clinical treatment team. The investigational product is supplied by the investigational treatment team as well. The opioid pain medication regimen continues as it was; the investigational product is taken either once or twice per day in a randomized manner.
All subjects sign an informed consent document prior to beginning the clinical research trial. They are all informed of the following: • 1. 300 of the subjects will be randomized to the new investigational medication, product Y, once daily, and the known benefits and the known potential side effects of Product Y are disclosed. To keep the study blinded, subjects will take a pill twice a day, but one of their doses will be a placebo. • 2. 300 of the subjects will be randomized to the new investigational medication, product Y, twice daily, and the known benefits and the known potential side effects of Product Y are disclosed. • 3. 300 of the subjects will be randomized to placebo taken twice a day. • 4.
5. […] Because you could receive an Acebo, you could get worse.

[3] = drugs.com; cited from earlier work
[4] = cited from earlier work

CNCCC=C1c2ccccc2CCc2ccccc21 [nortriptyline]
worsening in abdominal discomfort [1]: 1% | worsening [2]: 2% | constipation as side effect, share of the time [3]: ≥ 10%

N=C(N)NC(=O)Cc1c(Cl)cccc1Cl [guanfacine]
depression as side effect ([4]; in vivo): does not cause depression | fatigue (tiredness), share of people ([4]; on average): 16% | lethargy, share of people ([4]; on average): 6% | somnolence, share of people ([4]; on average): 34%

Clc1cccc(Cl)c1N=C1NCCN1 [clonidine]
depression among people who took the drug and reported side effects ([4]; 932 of 31,961 people reported to have side effects): ~3% and 2.92%
